# Measured values reported in patent US8642799B2, “Cysteine protease inhibitors for the treatment of parasitic diseases” (Merck Canada Inc., priority 2007, dated 2014).
# Target: cruzipain (Trypanosoma cruzi, UniProt P25779)
# Assay: biochemical
# Settings: 50 pM cruzipain, pH 5.5, 15 minutes preincubation, 2 μM Z-Phe-Arg-AMC substrate
# Protocol: The assay solutions were mixed and incubated for 15 minutes at room temperature prior to the addition of 2 μM of Z-Phe-Arg-AMC substrate. […] Percent of inhibition were calculated by fitting experimental values to standard mathematical model for dose response curve.
# Chain of cruzipain (P25779 123-467): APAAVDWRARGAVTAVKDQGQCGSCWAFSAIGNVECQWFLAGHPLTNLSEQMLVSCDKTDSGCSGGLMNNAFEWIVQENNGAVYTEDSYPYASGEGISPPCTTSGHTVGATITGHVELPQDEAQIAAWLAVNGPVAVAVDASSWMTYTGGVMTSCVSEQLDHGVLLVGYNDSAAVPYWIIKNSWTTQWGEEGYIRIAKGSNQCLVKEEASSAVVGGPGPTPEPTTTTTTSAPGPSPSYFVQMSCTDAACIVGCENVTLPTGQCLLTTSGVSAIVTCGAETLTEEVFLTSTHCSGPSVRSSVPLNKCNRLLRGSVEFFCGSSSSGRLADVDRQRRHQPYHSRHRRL
row,Compound,IC50
1,"CC(C)(F)C[C@H](N[C@@H](c1ccc(-c2ccc(S(C)(=O)=O)cc2)cc1)C(F)(F)F)C(=O)N[C@H](C#N)Cc1c(F)cc(Br)cc1F [Example 66, (S)-4-Fluoro-4-methyl-2-[(S)-2,2,2-trifluoro-1-(4′-methanesulfonyl-biphenyl-4-yl)-ethylamino]-pentanoic acid [(S)-(4-bromo-2,6-difluorobenzyl)-cyano-methyl]-amide]",1.6 nM
2,"CC(C)(F)C[C@H](N[C@@H](c1ccc(-c2ccc(-c3cc[n+]([O-])cc3)cc2)cc1)C(F)(F)F)C(=O)N[C@H](C#N)Cc1ccccc1 [Example 45, (S)-4-Fluoro-4-methyl-2-{(S)-2,2,2-trifluoro-1-[4′-(1-oxy-pyridin-4-yl)-biphenyl-4-yl]-ethylamino}-pentanoic acid ((S)-1-cyano-2-phenyl-ethyl)-amide]",7.8 nM
3,"CC(C)[C@H](N[C@@H](c1ccc(-c2ccc([C@@H](O)C(F)F)cc2)cc1)C(F)(F)F)C(=O)N[C@H](C#N)Cc1ccc(C(F)(F)F)cc1F [Example 61, (S)-N-[(S)-Cyano-(2-fluoro-4-trifluoromethyl-benzyl)-methyl]-2-{(S)-1-[4′-((R)-2,2-difluoro-1-hydroxy-ethyl)-biphenyl-4-yl]-2,2,2-trifluoro-ethylamino}-3-methyl-butyramide]",1.5 nM
4,"CCOC(=O)c1ccc(C[C@@H](C#N)NC(=O)[C@H](CC(C)(C)F)N[C@@H](c2ccc(-c3ccc(S(C)(=O)=O)cc3)cc2)C(F)(F)F)cc1 [Example 15, 4-((S)-2-Cyano-2-{(S)-4-fluoro-4-methyl-2-[(S)-2,2,2-trifluoro-1-(4′-methanesulfonyl-biphenyl-4-yl)-ethylamino]-pentanoylamino}-ethyl)-benzoic acid ethyl ester]",4.4 nM
5,"CC(C)(F)C[C@H](N[C@@H](c1ccc(-c2ccc(C3(C(=O)N4CCOCC4)CC3)cc2)cc1)C(F)(F)F)C(=O)N[C@H](C#N)Cc1ccc(C#N)cc1F [Example 43, (S)-4-Fluoro-4-methyl-2-((S)-2,2,2-trifluoro-1-{4′-[1-(morpholine-4-carbonyl)-cyclopropyl]-biphenyl-4-yl}-ethylamino)-pentanoic acid [(S)-1-cyano-2-(4-cyano-2-fluoro-phenyl)-ethyl]-amide]",0.35 nM
6,"CC(C)(F)C[C@H](N[C@@H](c1ccc(-c2ccc(C3(C(=O)NCCO)CC3)cc2)cc1)C(F)(F)F)C(=O)N[C@H](C#N)Cc1ccccc1 [Example 52, 1-[4′-((S)-1-{(S)-1-[((S)-Benzyl-cyano-methyl)-carbamoyl]-3-fluoro-3-methyl-butylamino}-2,2,2-trifluoro-ethyl)-biphenyl-4-yl]-cyclopropanecarboxylic acid (2-hydroxy-ethyl)-amide]",2.8 nM
7,"CC(C)C[C@H](N[C@@H](c1ccc(-c2ccc(S(C)(=O)=O)cc2)cc1)C(F)(F)F)C(=O)NC(C#N)Cc1ccc(C#N)cc1 (stereo partly drawn) [Example 8, (S)-4-Methyl-2-[(S)-2,2,2-trifIuoro-1-(4′-methanesulfonyl-biphenyl-4-yl)-ethylamino]-pentanoic acid [1-cyano-2-(4-cyano-phenyl)-ethyl]-amide]",0.2 nM
8,"CC(C)[C@H](N[C@@H](c1ccc(-c2ccc(S(C)(=O)=O)cc2)cc1)C(F)(F)F)C(=O)N[C@H](C#N)Cc1ccc(C(F)(F)F)cc1F [Example 62, (S)-N-[(S)-Cyano-(2-fluoro-4-trifluoromethyl-benzyl)-methyl]-3-methyl-2-[(S)-2,2,2-trifluoro-1-(4′-methanesulfonyl-biphenyl-4-yl)-ethylamino]-butyramide]",0.4 nM

# Further compounds by falling IC50, results first:
row,IC50,Compound
1,39 nM,"CC(C)(F)C[C@H](N[C@@H](c1ccc(-c2ccc(S(C)(=O)=O)cc2)cc1)C(F)(F)F)C(=O)N[C@H](C#N)Cc1ccc[n+]([O-])c1 [Example 74, (S)-4-Fluoro-4-methyl-2-[(S)-2,2,2-trifluoro-1-(4′-methanesulfonyl-biphenyl-4-yl)-ethylamino]-pentanoic acid [(S)-cyano-(1-oxy-pyridin-3-ylmethyl)-methyl]-amide]"
2,16 nM,"CC(C)(F)C[C@H](N[C@@H](c1ccc(-c2ccc(S(N)(=O)=O)cc2)cc1)C(F)(F)F)C(=O)N[C@H](C#N)Cc1ccccc1 [Example 31, (S)-4-Fluoro-4-methyl-2-[(S)-2,2,2-trifluoro-1-(4′-sulfamoyl-biphenyl-4-yl)-ethylamino]-pentanoic acid ((S)-1-cyano-2-phenyl-ethyl)-amide]"
3,10.4 nM,"CC(C)(F)C[C@H](N[C@@H](c1ccc(-c2ccc(C3(C#N)CC3)cc2)cc1)C(F)(F)F)C(=O)N[C@H](C#N)Cc1ccccc1 [Example 27, (S)-2-{(S)-1-[4′-(1-Cyano-cyclopropyl)-biphenyl-4-yl]-2,2,2-trifluoro-ethylamino}-4-fluoro-4-methyl-pentanoic acid ((S)-1-cyano-2-phenyl-ethyl)-amide]"
4,9.4 nM,"CC(C)(F)C[C@H](N[C@@H](c1ccc(-c2ccc(C3(C(=O)NCC(F)(F)F)CC3)cc2)cc1)C(F)(F)F)C(=O)N[C@H](C#N)Cc1ccccc1 [Example 54, 1-[4′-((S)-1-{(S)-1-[((S)-Benzyl-cyano-methyl)-carbamoyl]-3-fluoro-3-methyl-butylamino}-2,2,2-trifluoro-ethyl)-biphenyl-4-yl]-cyclopropanecarboxylic acid (2,2,2-trifluoro-ethyl)-amide]"
5,6.1 nM,"CC(C)(F)C[C@H](N[C@@H](c1ccc(-c2ccc(S(C)(=O)=O)cc2)cc1)C(F)(F)F)C(=O)N[C@H](C#N)Cc1ccc(F)cc1 [Example 16, (S)-4-Fluoro-4-methyl-2-[(S)-2,2,2-trifluoro-1-(4′-methanesulfonyl-biphenyl-4-yl)-ethylamino]-pentanoic acid [(S)-cyano-(4-fluoro-benzyl)-methyl]-amide]"
6,1.5 nM,"CC(C)(F)C[C@H](N[C@@H](c1ccc(-c2ccc(S(C)(=O)=O)cc2)cc1)C(F)(F)F)C(=O)N[C@H](C#N)Cc1ccc(C(F)(F)F)cc1F [Example 46, (S)-4-Fluoro-4-methyl-2-[(S)-2,2,2-trifluoro-1-(4′-methanesulfonyl-biphenyl-4-yl)-ethylamino]-pentanoic acid [(S)-cyano-(2-fluoro-4-trifluoromethyl-benzyl)-methyl]-amide]"
7,0.6 nM,"CC(C)(F)C[C@H](N[C@@H](c1ccc(-c2ccc(-c3ccncc3)cc2)cc1)C(F)(F)F)C(=O)N[C@H](C#N)Cc1ccc(C#N)cc1F [Example 39, (S)-4-Fluoro-4-methyl-2-[(S)-2,2,2-trifluoro-1-(4′-pyridin-4-yl-biphenyl-4-yl)-ethylamino]-pentanoic acid [(S)-1-cyano-2-(4-cyano-2-fluoro-phenyl)-ethyl]-amide]"
8,0.3 nM,"CC(C)[C@H](N[C@@H](c1ccc(-c2ccc(C3(C(=O)O)CC3)cc2)cc1)C(F)(F)F)C(=O)N[C@H](C#N)Cc1ccc(C#N)cc1F [Example 58, 1-{4′-[(S)-1-((S)-1-{[(S)-Cyano-(4-cyano-2-fluoro-benzyl)-methyl]-carbamoyl}-2-methyl-propylamino)-2,2,2-trifluoro-ethyl]-biphenyl-4-yl}-cyclopropanecarboxylic acid]"
9,0.1 nM,"CC(C)[C@H](N[C@@H](c1ccc(-c2ccc(C3(C(=O)NCCO)CC3)cc2)cc1)C(F)(F)F)C(=O)N[C@H](C#N)Cc1ccc(C#N)cc1F [Example 59, 1-{4′-[(S)-1-((S)-1-{[(S)-Cyano-(4-cyano-2-fluoro-benzyl)-methyl]-carbamoyl}-2-methyl-propylamino)-2,2,2-trifluoro-ethyl]-biphenyl-4-yl}-cyclopropanecarboxylic acid (2-hydroxy-ethyl)-amide]"
